Data published in patent US8609713B2, “Pyrrole derivatives and their methods of use” (AbbVie Inc., priority 2006, dated 2013).

Molecular target: α7 nAChRs (Homo sapiens, UniProt P36544)
Assay: High-throughput calcium flux (FLIPR) assay using IMR-32 cells expressing endogenous α7 nAChRs
Method: (i) High-Throughput Calcium Flux Assays Using Cells Expressing Endogenous α7 nAChRs
Any suitable selective α7 agonist can be used.
IMR-32 neuroblastoma cells (ATCC) were grown to confluency in 162 cm^2 tissue culture flasks in minimum essential media supplemented with 10% FBS and 1 mM sodium puruvate, 0.1 mM non-essential amino acids and 1% antibiotic-antimycotic. The cells were then dissociated using cell dissociation buffer and 40 μl of 3.5×10^5 cells/ml cell suspension was plated (˜15,000 cells/well) into black plates with clear bottom and maintained for 48 hours in a tissue culture incubator at 37° C. under an atmosphere of 5% CO2: 95% air. […] Calcium flux was measured using calcium-3 assay kit (Molecular Devices, Sunnyvale, Calif.) or fluo-4. […] Fluorescence measurements were read simultaneously from all the wells by a Fluorometic Imaging Plate Reader (FLIPR) at an excitation wavelength of 480 nm and an emission wavelength of 520 nm. Baseline fluorescence was measured for the first 10 seconds, at which point 5× concentrations of modulator/test compounds were added to the cell plate and incubated for three minutes. The fluorescence intensity was captured every second for the first 1 minute followed by every 5 seconds for an additional 2 minutes. […]

α7 nAChRs, sequence (P36544 23-502): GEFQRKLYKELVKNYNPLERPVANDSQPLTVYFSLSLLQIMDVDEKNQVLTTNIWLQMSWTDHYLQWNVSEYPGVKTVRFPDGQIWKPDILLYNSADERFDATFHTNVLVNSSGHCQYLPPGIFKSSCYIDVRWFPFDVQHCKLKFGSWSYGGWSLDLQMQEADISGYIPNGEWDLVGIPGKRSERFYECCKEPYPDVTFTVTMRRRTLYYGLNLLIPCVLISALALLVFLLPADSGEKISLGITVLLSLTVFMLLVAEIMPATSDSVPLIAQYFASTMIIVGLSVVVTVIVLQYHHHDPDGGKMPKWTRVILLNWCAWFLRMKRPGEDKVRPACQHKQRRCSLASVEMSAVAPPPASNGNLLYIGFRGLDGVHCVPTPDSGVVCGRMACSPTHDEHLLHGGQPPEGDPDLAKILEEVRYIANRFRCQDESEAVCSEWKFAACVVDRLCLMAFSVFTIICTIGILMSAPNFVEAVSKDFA

SMILES	calcium response, agonist alone (absence of allosteric modulator, FIG. 3)	effect of α7 selective antagonist on the agonist plus modulator calcium response
CN1CC2CN(c3ccc(-c4ccccc4)nn3)CC2C1 (centres unmarked)	did not trigger calcium responses	–
CCN1C[C@]2(COC(=O)c3ccccc3N3C(=O)C[C@H](C)C3=O)CC[C@H](OC)[C@@]34[C@@H]5C[C@H]6[C@H](OC)[C@@H]5[C@](O)(C[C@@H]6OC)[C@@](O)([C@@H](OC)[C@H]23)[C@@H]14 [methyllycaconitine]	–	abolished response
